System: Kuramochi cells labeled with mApple-H2B
Assay: IncuCyte Cell Proliferation Assay
Assay type: cell-based
Settings: 72 h
Protocol: IncuCyte® assay was used to measure the effect of disclosed compounds on cell proliferation. Fluorescent microscopy images of cells were taken immediately after compound treatment and 72 hours later. Image analysis software was used to obtain cell counts as a function of compound concentration. Kuramochi cells labeled with mApple-H2B were seeded on 384-well assay-ready plates. Plates were placed in an IncuCyte® (Sartorius) and scanned at 0 and 72 hours. IncuCyte® software was used to count the number of fluorescent nuclei in each well. The fold change in cell count from 0 to 72 hours in wells treated with increasing compounds concentrations (10 pts, ½ log dilution, 20 μM top concentration) was normalized to DMSO control wells. The normalized cell counts were fit with dose response curves and a […] was calculated.

Compound | IC50
[2H]C([2H])([2H])OC[C@H]1CCCN(C(=O)[C@@H](NC(=O)[C@@H]2CN(C(=O)c3cncs3)CC23CN(C(=O)C(C)(C)C2CC2)C3)[C@@H](C)OCC23CCC(CC2)OC3)C1 [I-459] | 5 to 20 µM
COC[C@H]1CCCN(C(=O)[C@@H](NC(=O)[C@@H]2CN(C(=O)c3cncs3)CC23CN(C(=O)[C@H]2CC2(C)C)C3)[C@@H](C)OC[C@H]2CC[C@H](OC(F)(F)F)CC2)C1 [I-435] | 0.5 to 5 µM
CNC(=O)[C@@H](NC(=O)[C@@]1(C)CN(C(=O)c2cnn(Cc3ccccc3)c2)CC12CN(C(=O)[C@H]1CC1(C)C)C2)[C@@H](C)OCC1CCCCC1 [I-499B] | > 20 µM
CNC(=O)C(NC(=O)[C@@H]1CN(C(=O)c2cncs2)CC12CN(C(=O)[C@H]1CC1(C)C)C2)c1ccc(C)nn1 (some centres unmarked) [I-420] | > 20 µM
Cc1nc(C)c(C(=O)N2C[C@@H](C(=O)N[C@H](C(=O)N3CCC(C(F)(F)F)CC3)[C@@H](C)OCC34CCC(CC3)OC4)C3(C2)CN(C(=O)[C@H]2CC2(C)C)C3)s1 [I-456] | 0.5 to 5 µM
CC1(C)C[C@@H]1C(=O)N1CC2(CN(C(=O)c3cncs3)C[C@H]2C(=O)NCc2cccc(C3CCCCC3)n2)C1 [I-414] | 0.5 to 5 µM
C[C@@H](OCC12CCC(CC1)OC2)[C@H](NC(=O)[C@@H]1CN(C(=O)c2cncs2)CC12CN(C(=O)C(C)(C)C1CC1)C2)C(C)(C)O [I-334] | > 20 µM
C[C@@H](OCC1CCOCC1)[C@@H](COC1CCC(F)(F)CC1)NC(=O)[C@@H]1CN(C(=O)c2cncs2)CC12CN(C(=O)C(C)(C)C1CC1)C2 [I-333, (S)-2-(2-cyclopropyl-2-methylpropanoyl)-N-((2R,3R)-1-((4,4-difluorocyclohexyl)oxy)-3-((tetrahydro-2H-pyran-4-yl)methoxy)butan-2-yl)-6-(thiazole-5-carbonyl)-2,6-diazaspiro[3.4]octane-8-carboxamide] | 5 to 20 µM
CC1(C)C[C@@H]1C(=O)N1CC2(CN(C(=O)c3cncs3)C[C@H]2C(=O)NC(c2cccc(C3CCOCC3)n2)C2CCCO2)C1 (some centres unmarked) [I-497] | > 20 µM
C[C@@H](OCC1CCC(F)(F)CC1)[C@H](NC(=O)[C@@H]1CN(C(=O)c2cncs2)CC12CN(C(=O)C(C)(C)C1CC1)C2)C(=O)N1CCC(O)CC1 [I-337] | 0.5 to 5 µM
COC1CCN(C(=O)[C@@H](NC(=O)[C@@H]2CN(C(=O)c3sc(C)nc3C)CC23CN(C(=O)[C@H]2CC2(C)C)C3)[C@@H](C)OCC23CCC(CC2)OC3)CC1 [I-451] | 5 to 20 µM
CNC(=O)C(NC(=O)[C@@H]1CN(C(=O)c2cncs2)CC12CN(C(=O)[C@H]1CC1(C)C)C2)c1cccc(C2CCC(F)(F)CC2)n1 (some centres unmarked) [I-411] | > 20 µM
[2H]C([2H])([2H])NC(=O)C(NC(=O)[C@@H]1CN(C(=O)c2cncs2)CC12CN(C(=O)[C@H]1CC1(C)C)C2)c1cccc(N2CCOCC2)n1 (some centres unmarked) [I-18] | > 20 µM
CC1(C)C[C@@H]1C(=O)N1CC2(CN(C(=O)c3cnn(Cc4ccccc4)c3)C[C@H]2C(=O)NC[C@H]2CC[C@@H](C)CC2)C1 [I-388] | 0.5 to 5 µM
C[C@@H](OCC12CCC(CC1)OC2)[C@H](NC(=O)[C@@H]1CN(C(=O)c2cncs2)CC12CN(C(=O)[C@H]1CC1(C)C)C2)C(=O)N1CCC[C@H](COC(F)(F)F)C1 [I-460] | 0.5 to 5 µM
C[C@@H](OCC1CCCCC1)[C@H](NC(=O)[C@@H]1CN(C(=O)c2cnn(Cc3ccccc3)c2)CC12CN(C(=O)[C@H]1CC1(C)C)C2)C(=O)N1CC[C@H]1CN [I-310] | 5 to 20 µM
C[C@@H](OCC1CCCCC1)[C@H](NC(=O)[C@@H]1CN(C(=O)c2cnn(Cc3ccccc3)c2)CC12CN(C(=O)[C@H]1CC1(C)C)C2)C(=O)N1CCC(c2ccncc2)CC1 [I-300] | ≤ 0.5 µM

Compound | IC50
C[C@@H](OCC1CCC(F)(F)CC1)[C@H](NC(=O)[C@@H]1CN(C(=O)c2cncs2)CC12CN(C(=O)[C@H]1CC1(C)C)C2)C(=O)N1CCC(CO)CC1 [I-397] | 0.5 to 5 µM
C[C@@H](OCC12CCC(CC1)OC2)[C@H](NC(=O)[C@@H]1CN(C(=O)c2cncs2)CC12CN(C(=O)[C@H]1CC1(C)C)C2)C(=O)N1CCC2(CC1)CC2 [I-458] | 0.5 to 5 µM
CNC(=O)[C@@H](NC(=O)[C@@H]1CN(C(=O)c2cncs2)CC12CN(Cc1ccco1)C2)[C@@H](C)OCC12CCC(CC1)OC2 [I-349] | > 20 µM
CC(O[C@H](C)[C@@H](COC1CCC(F)(F)CC1)NC(=O)[C@@H]1CN(C(=O)c2cncs2)CC12CN(C(=O)[C@H]1CC1(F)F)C2)C1CCC(F)(F)CC1 (some centres unmarked) [I-316] | > 20 µM
Cc1nc(C)c(C(=O)N2C[C@@H](C(=O)NC(c3cccc(C4CCOCC4)n3)C(C)(C)O)C3(C2)CN(C(=O)[C@H]2CC2(C)C)C3)s1 (some centres unmarked) [I-437] | > 20 µM
C[C@@H](OCC12CCC(CC1)OC2)[C@H](NC(=O)[C@@H]1CN(C(=O)c2cnco2)CC12CN(C(=O)C(C)(C)C1CC1)C2)C(C)(C)O [I-448] | > 20 µM
Cc1nc(C)c(C(=O)N2C[C@@H](C(=O)N[C@H](C(=O)N3CCC(OC(F)(F)F)CC3)[C@@H](C)OCC34CCC(CC3)OC4)C3(C2)CN(C(=O)[C@H]2CC2(C)C)C3)s1 [I-455] | 0.5 to 5 µM
CC(C)(O)C(NC(=O)[C@@H]1CN(C(=O)c2cncs2)CC12CN(C(=O)[C@H]1CC1(C)C)C2)c1cccc(C2CCOCC2)n1 (some centres unmarked) [I-423] | > 20 µM
CNC(=O)C(NC(=O)[C@@H]1CN(C(=O)c2cnn(Cc3ccccc3)c2)CC12CN(C(=O)[C@H]1CC1(C)C)C2)c1ccc(C)nn1 (some centres unmarked) [I-421] | > 20 µM
C[C@@H](OCC1CCCCC1)[C@H](NC(=O)[C@@H]1CN(C(=O)c2cnn(Cc3ccccc3)c2)CC12CN(C(=O)[C@H]1CC1(C)C)C2)C(=O)NCCC(=O)OC(C)(C)C [I-478] | ≤ 0.5 µM
C[C@@H](OCC1CCCCC1)[C@@H](COC1CCNCC1)NC(=O)[C@@H]1CN(C(=O)c2cncs2)CC12CN(C(=O)[C@H]1CC1(C)C)C2 [I-329] | 0.5 to 5 µM
C[C@@H](OCC1CCCCC1)C(NC(=O)[C@@H]1CN(C(=O)c2cncs2)CC12CN(C(=O)[C@H]1CC1(C)C)C2)c1nnco1 (stereo in doubt) [I-415, (S)—N-((1S,2R)-2-(cyclohexylmethoxy)-1-(1,3,4-oxadiazol-2-yl)propyl)-2-((S)-2,2-dimethylcyclopropane-1-carbonyl)-6-(thiazole-5-carbonyl)-2,6-diazaspiro[3.4]octane-8-carboxamide] | 0.5 to 5 µM
CC1(C)C[C@@H]1C(=O)N1CC2(CN(C(=O)c3cnn(Cc4ccccc4)c3)C[C@H]2C(=O)NCc2ccc(C(F)(F)F)nn2)C1 [I-392] | > 20 µM
CNC(=O)[C@@H](NC(=O)[C@]1(C)CN(C(=O)c2cnn(Cc3ccccc3)c2)CC12CN(C(=O)[C@H]1CC1(C)C)C2)[C@@H](C)OCC1CCCCC1 [I-499A] | > 20 µM
CNC(=O)[C@@H](NC(=O)[C@@H]1CN(C(=O)c2cnn(Cc3ccccc3)c2)CC12CN(C(=O)[C@H]1CC1(C)C)C2)[C@@H](C)OC[C@H]1CC[C@H](O)CC1 [I-413] | > 20 µM
C[C@@H](OCC1CCC(F)(F)CC1)[C@H](NC(=O)C1CN(C(=O)c2cncs2)CC12CN(C(=O)[C@H]1CC1(C)C)C2)C(=O)N1CCC(OC(F)(F)F)CC1 (some centres unmarked) [I-394] | ≤ 0.5 µM
CNC(=O)[C@@H](NC(=O)[C@@H]1CN(C(=O)c2cncs2)CC12CN(CC(C)(C)C)C2)[C@@H](C)OCC12CCC(CC1)OC2 [I-347] | > 20 µM

Same assay, conditions: 72 hours

Compound | IC50
COC[C@H]1CCCN(C(=O)[C@@H](NC(=O)[C@@H]2CN(C(=O)c3cncs3)CC23CN(C(=O)[C@H]2CC2(C)C)C3)[C@@H](C)O[C@@H](C)C2CCCCC2)C1 [I-467] | 0.5 to 5 µM

From patent US12065445B2, “CDK2 inhibitors and methods of using the same” (Cedilla Therapeutics, Inc., priority 2021, dated 2024)
